The subject of test [1] is MCF-7 breast cancer cell line. Put plainly: In vitro antiproliferative activity, MCF-7 breast cancer cell line. Type of test: cell-based, human. The procedure: (§1) Substituted β-carbolines and analog compounds 39 to 57 were tested for antiproliferative activity against HPAC, Mia-PaCa2 and Panc-1 pancreatic cancer cell lines and MCF-7 and MDA-MB-468 breast cancer cell lines. Table 2 lists the IC50 values for the substituted β-carbolines and analogs thereof.

Test [2] relates to MDA-MB-468 breast cancer cell line. Put plainly: In vitro antiproliferative activity, MDA-MB-468 breast cancer cell line. To be noted: Table 2. Type of test: cell-based, human. Here is the method: as §1
The subject of test [3] is Mia-PaCa2 pancreatic cancer cell line. Put plainly: In vitro antiproliferative activity, Mia-PaCa2 pancreatic cancer cell line. It counts as cell-based. Here is the method: (§2) Substituted β-carboline compounds 4 to 38 were tested for antiproliferative activity against HCT116 colon cancer cells and HPAC, Mia-PaCa2 and Panc-1 pancreatic cancer cell lines. Table 1 lists the IC50 values for the substituted β-carbolines.
as §1

The test system of test [4] is HPAC pancreatic cancer cell line. Put plainly: In vitro antiproliferative activity, HPAC pancreatic cancer cell line. Type of test: cell-based. The procedure:
as §2, §1

For test [5], the system named is Panc-1 pancreatic cancer cell line. In words: In vitro antiproliferative activity, Panc-1 pancreatic cancer cell line. Type of test: cell-based, human. The procedure: as §1
The test system of test [6] is HCT116 colon cancer cells. Put plainly: In vitro antiproliferative activity, HCT116 colon cancer cells. It counts as cell-based. As to conditions: Homo sapiens, HCT-116, Table 1. The procedure: as §2
The mark [7] stands for this setting: Homo sapiens, MIA PaCa-2, Table 2.
[8] abbreviates: Homo sapiens, MIA PaCa-2, Table 1.

pIC50: −log10 of the molar value.

Take `Oc1ccc2[nH]c3c(-c4cccc5ccccc45)nccc3c2c1` [Compound 40, 1-(naphthalen-1-yl)-9H-pyrido[3,4-b]indol-6-ol]: the pIC50 in test [1] (Homo sapiens, MCF7, Table 2) is 4.47; in test [2] (Homo sapiens) it was 4.99.

In the case of `FC(F)(F)Oc1ccc2[nH]c3c(-c4cccc5ccccc45)nccc3c2c1` [Compound 52, 1-(Naphthalen-1-yl)-6-(trifluoromethoxy)-9H-pyrido[3,4-b]indole], the pIC50 in test [1] (Homo sapiens, MCF7, Table 2) was 5.12; in test [3] (setting [7]), 5.06; in test [2] (Homo sapiens), 5.30; in test [4] (Homo sapiens, Table 2), 4.45; in test [5] (Homo sapiens, Table 2) it was under 4.30.

With `CNS(=O)(=O)Cc1ccc2[nH]c3c(-c4cccc5ccccc45)nccc3c2c1` [Compound 42, N-methyl-1-(1-(naphthalen-1-yl)-9H-pyrido[3,4-b]indol-6-yl)methanesulfonamide], the pIC50 in test [1] (Homo sapiens, MCF7, Table 2) was 5.69; in test [3] (setting [7]) it was 6.24; in test [2] (Homo sapiens), 5.95; in test [4] (Homo sapiens, Table 2), 5.42; in test [5] (Homo sapiens, Table 2), 5.21.

As for `Cc1cccc2[nH]c3c(-c4cccc5ccccc45)nccc3c12` [Compound 43, 5-methyl-1-(naphthalen-1-yl)-9H-pyrido[3,4-b]indole], the pIC50 in test [1] (Homo sapiens, MCF7, Table 2) is 5.11; in test [3] (setting [7]), 5.93; in test [2] (Homo sapiens), 5.85; in test [4] (Homo sapiens, Table 2), 5.39; in test [5] (Homo sapiens, Table 2), 5.34.

On to `N#Cc1ccc2[nH]c3c(-c4cccc5ccccc45)nccc3c2c1` [Compound 53, 1-(Naphthalen-1-yl)-9H-pyrido[3,4-b]indole-6-carbonitrile], for which the pIC50 in test [1] (Homo sapiens, MCF7, Table 2) is under 4.30; in test [3] (setting [7]) it was 4.39; in test [2] (Homo sapiens) it was 4.52; in test [4] (Homo sapiens, Table 2), 4.30; in test [5] (Homo sapiens, Table 2), under 4.30.

For `COc1ccc2c(c1)c1ccnc(-c3cccc4ccccc34)c1n2C` [Compound 57, 6-Methoxy-9-methyl-1-(naphthalen-1-yl)-9H-pyrido[3,4-b]indole], the pIC50 is 4.28 in test [1] (Homo sapiens, MCF7, Table 2); 4.47 in test [3] (setting [7]); 4.75 in test [2] (Homo sapiens); 4.35 in test [4] (Homo sapiens, Table 2); 4.38 in test [5] (Homo sapiens, Table 2).

`Cn1c2ccccc2c2ccnc(-c3cccc4ccccc34)c21` [Compound 56, 9-Methyl-1-(naphthalen-1-yl)-9H-pyrido[3,4-b]indole]: the pIC50 in test [1] (Homo sapiens, MCF7, Table 2) was 4.29; in test [3] (setting [7]), 4.43; in test [2] (Homo sapiens), 4.85; in test [4] (Homo sapiens, Table 2), 4.67; in test [5] (Homo sapiens, Table 2), 4.47.

Consider `Cc1ccc2[nH]c3c(-c4cccc5ccccc45)nccc3c2c1` [Compound 51, 6-Methyl-1-(naphthalen-1-yl)-9H-pyrido[3,4-b]indole], for which the pIC50 in test [1] (Homo sapiens, MCF7, Table 2) is 5.17; in test [3] (setting [7]), 4.88; in test [2] (Homo sapiens), 5.18; in test [4] (Homo sapiens, Table 2) it was under 4.30; in test [5] (Homo sapiens, Table 2), under 4.30.

`Brc1ccc2[nH]c3c(-c4cccc5ccccc45)nccc3c2c1` [Compound 54, 6-Bromo-1-(naphthalen-1-yl)-9H-pyrido[3,4-b]indole]: the pIC50 was 4.94 in test [1] (Homo sapiens, MCF7, Table 2); 4.58 in test [3] (setting [7]); 5.29 in test [2] (Homo sapiens); 4.96 in test [4] (Homo sapiens, Table 2); 4.52 in test [5] (Homo sapiens, Table 2).

As for `COc1ccc2[nH]c3c(-c4cccc5ccccc45)ncc(-c4ccccc4)c3c2c1` [Compound 41, 6-methoxy-1-(naphthalen-1-yl)-4-phenyl-9H-pyrido[3,4-b]indole], the pIC50 in test [1] (Homo sapiens, MCF7, Table 2) was under 5.00; in test [3] (setting [7]), 5.44; in test [2] (Homo sapiens), under 5.00; in test [4] (Homo sapiens, Table 2), 5.11; in test [5] (Homo sapiens, Table 2), under 5.00.

As to `Cc1ccc2[nH]c3c(-c4cccc5c(Br)cccc45)nccc3c2c1` [Compound 46, 1-(5-bromonaphthalen-1-yl)-6-methyl-9H-pyrido[3,4-b]indole], the pIC50 was under 4.30 in test [1] (Homo sapiens, MCF7, Table 2); 4.38 in test [3] (setting [7]); under 4.30 in test [2] (Homo sapiens); under 4.30 in test [4] (Homo sapiens, Table 2); under 4.30 in test [5] (Homo sapiens, Table 2).

On to “1-(1,2-Dihydroacenaphth alen-5-yl)-6-methoxy-9H-pyrido[3,4-b]indole [Compound 47]”, for which the pIC50 in test [1] (Table 2) is 5.19; in test [3] (Table 2) it was 5.53; in test [2] it was 5.35; in test [4] (Table 2), 5.32; in test [5] (Table 2), under 4.30.

For `c1ccc2c(-c3nccc4c3sc3ccccc34)cccc2c1` [Compound 50, 1-(Naphthalen-1-yl)benzo[4,5]thieno[2,3-c]pyridine], the negative logarithm of the IC50 (pIC50) in test [1] (Homo sapiens, MCF7, Table 2) was under 4.30; in test [3] (setting [7]) it was under 4.30; in test [2] (Homo sapiens), 4.83; in test [4] (Homo sapiens, Table 2) it was under 4.30; in test [5] (Homo sapiens, Table 2), under 4.30.

Regarding `COc1ccc2[nH]c3c(-c4cccc5c(F)cccc45)nccc3c2c1` [Compound 44, 1-(5-fluoronaphthalen-1-yl)-6-methoxy-9H-pyrido[3,4-b]indole], the pIC50 in test [1] (Homo sapiens, MCF7, Table 2) was 5.18; in test [3] (setting [7]), 6.48; in test [2] (Homo sapiens), 5.92; in test [4] (Homo sapiens, Table 2) it was 5.63; in test [5] (Homo sapiens, Table 2), 5.59.

For the compound `c1ccc2c(-c3nccc4c3oc3ccccc34)cccc2c1` [Compound 49, 1-(naphthalen-1-yl)benzofuro[2,3-c]pyridine], the pIC50 was under 4.30 in test [1] (Homo sapiens, MCF7, Table 2); 4.47 in test [3] (setting [7]); 4.30 in test [2] (Homo sapiens); under 4.30 in test [4] (Homo sapiens, Table 2); under 4.30 in test [5] (Homo sapiens, Table 2).

Regarding `COc1ccc2c(c1)[nH]c1c(-c3cnc4ccccc4c3)nccc12` [Compound 18, 7-Methoxy-1-quinolin-3-yl-9H-β-carboline], the pIC50 is 4.78 in test [3] (setting [8]); 4.88 in test [6]; 4.84 in test [4] (Homo sapiens, Table 1); 4.43 in test [5] (Homo sapiens, Table 1).

As for `COc1ccc2[nH]c3c(-c4cccc5c(Br)cccc45)nccc3c2c1` [Compound 45, 1-(5-bromonaphthalen-1-yl)-6-methoxy-9H-pyrido[3,4-b]indole], the pIC50 in test [1] (Homo sapiens, MCF7, Table 2) is 5.16; in test [3] (setting [7]), 5.93; in test [2] (Homo sapiens), 5.75; in test [4] (Homo sapiens, Table 2), 5.21; in test [5] (Homo sapiens, Table 2), 5.53.

Regarding `COc1ccc2c(c1)[nH]c1c(-c3c4ccccc4cc4ccccc34)nccc12` [Compound 28, 1-Anthracen-9-yl-7-methoxy-9H-β-carboline], the negative logarithm of the IC50 (pIC50) was 5.44 in test [3] (setting [8]); 5.77 in test [6]; 5.26 in test [4] (Homo sapiens, Table 1); 4.83 in test [5] (Homo sapiens, Table 1).

Consider `COc1ccc2c(c1)[nH]c1c(-c3cccc4nccnc34)nccc12` [Compound 14, 7-Methoxy-1-quinoxalin-5-yl-9H-β-carboline], for which the pIC50 in test [3] (setting [8]) is under 4.30; in test [6] it was 4.30; in test [4] (Homo sapiens, Table 1), under 4.30; in test [5] (Homo sapiens, Table 1), under 4.30.

On to `CCOC(=O)c1cc2c([nH]c3ccc(OC)cc32)c(-c2cccc3ccccc23)n1` [Compound 55, Ethyl-6-methoxy-1-(naphthalen-1-yl)-9H-pyrido[3,4-b]indole-3-carboxylate], for which the negative-log IC50 (pIC50) was 4.75 in test [1] (Homo sapiens, MCF7, Table 2); 4.76 in test [3] (setting [7]); 5.25 in test [2] (Homo sapiens); 4.89 in test [4] (Homo sapiens, Table 2); 4.63 in test [5] (Homo sapiens, Table 2).

For the compound `COc1ccc2[nH]c3c(-c4c5ccccc5cc5ccccc45)nccc3c2c1` [Compound 27, 1-Anthracen-9-yl-6-methoxy-9H-β-carboline], the pIC50 in test [3] (setting [8]) is 5.61; in test [6], 5.68; in test [4] (Homo sapiens, Table 1) it was 5.22; in test [5] (Homo sapiens, Table 1), 4.98.

In general, pIC50 refers to the negative decadic logarithm of the IC50, by convention in mol/L.

Source of the values: patent US8927570B2, “1-naphthyl-or 1-dihydroacenaphthenyl-pyrido[B]indoles and uses thereof in treating cancers” (priority 2009, dated 2015).
